# Reference: ChEMBL document CHEMBL1806475, “Phosphopeptides with improved cellular uptake properties as ligands for the polo-box domain of polo-like kinase 1” (Bioorg Med Chem Lett, 2011)
# Where a SMILES comes first, the peptide text is derived from it.
# Legend:
# [1] = system: FaDu; experiment: Cellular uptake in human FADU cells assessed per mg of protein; type: ADME, cell-based
# [2] = system: HT-29; experiment: Cellular uptake in human HT-29 cells assessed per mg of protein; type: ADME, cell-based
# [3] = system: MCF7; experiment: Toxicity in human MCF7 cells at up to 100 uM after 24 hrs; type: cell-based; details: mcf7, 24 h
# [4] = system: HT-29; experiment: Cellular uptake in human HT-29 cell vesicular compartments at 25 uM after 60 mins using Hoechst H33342 dye by fluorescence microscopy analysis; type: ADME, cell-based; details: ht-29, 1 h
# [5] = target: Serine/threonine-protein kinase PLK1 (Homo sapiens, UniProt P53350); experiment: Binding affinity to human polo-box domain of PLK1 after 1 hr by fluorescence polarization-based assay
# [6] = system: HT-29; experiment: Toxicity in human HT-29 cells at up to 100 uM after 24 hrs; type: cell-based; details: ht-29, 24 h
# [7] = system: HT-29; experiment: Cellular uptake in human HT-29 cells at 25 uM after 60 mins by flow cytometry; type: ADME, cell-based; details: ht-29, 1 h
# [8] = system: HeLa; experiment: Toxicity in human HeLa cells at up to 100 uM after 24 hrs; type: cell-based
# [9] = system: MCF7; experiment: Cellular uptake in human MCF7 cell vesicular compartments at 50 uM after 60 mins using Hoechst H33342 dye by fluorescence microscopy analysis; type: ADME, cell-based; details: mcf7, 1 h
# [10] = system: MCF7; experiment: Cellular uptake in human MCF7 cell nucleus at 50 uM after 60 mins using Hoechst H33342 dye by fluorescence microscopy analysis; type: ADME, cell-based; details: mcf7, 1 h
# [11] = system: HeLa; experiment: Cellular uptake in human HeLa cell vesicular compartments at 50 uM after 60 mins using Hoechst H33342 dye by fluorescence microscopy analysis; type: ADME, cell-based; details: 1 h
# [12] = system: HeLa; experiment: Cellular uptake in human HeLa cells at 25 uM after 60 mins by flow cytometry; type: ADME, cell-based; details: 1 h
# [13] = system: HT-29; experiment: Cellular uptake in human HT-29 cells at 25 uM after 60 mins by flow cytometry relative to cellular uptake in human HeLa cells; type: ADME, cell-based; details: ht-29, 1 h
# [14] = system: MCF7; experiment: Cellular uptake in human MCF7 cells at 25 uM after 60 mins by flow cytometry; type: ADME, cell-based; details: mcf7, 1 h
# [15] = system: MCF7; experiment: Cellular uptake in human MCF7 cells at 25 uM after 60 mins by flow cytometry relative to cellular uptake in human HeLa cells; type: ADME, cell-based; details: mcf7, 1 h
# Chain of Serine/threonine-protein kinase PLK1 (P53350 whole entry, the tested form may be a part): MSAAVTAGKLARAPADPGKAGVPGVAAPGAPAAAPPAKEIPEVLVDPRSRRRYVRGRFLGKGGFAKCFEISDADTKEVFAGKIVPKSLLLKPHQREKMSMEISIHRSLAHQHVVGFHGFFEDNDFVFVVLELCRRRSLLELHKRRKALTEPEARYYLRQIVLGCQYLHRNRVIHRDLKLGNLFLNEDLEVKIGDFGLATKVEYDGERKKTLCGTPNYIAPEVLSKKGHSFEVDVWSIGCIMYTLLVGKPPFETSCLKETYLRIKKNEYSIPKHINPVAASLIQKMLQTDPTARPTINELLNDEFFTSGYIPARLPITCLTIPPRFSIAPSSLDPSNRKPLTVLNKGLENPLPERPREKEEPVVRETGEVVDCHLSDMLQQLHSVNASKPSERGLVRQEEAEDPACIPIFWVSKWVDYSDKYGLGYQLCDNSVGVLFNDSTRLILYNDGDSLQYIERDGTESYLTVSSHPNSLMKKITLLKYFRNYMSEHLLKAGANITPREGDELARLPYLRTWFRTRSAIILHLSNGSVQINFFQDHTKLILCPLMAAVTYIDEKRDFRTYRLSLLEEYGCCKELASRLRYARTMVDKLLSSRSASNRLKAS
Drug uptake [1] [%ID],Drug uptake [2] [%ID],Drug uptake [4],Kd [5] [nM],Drug uptake [7],Drug uptake [9],Drug uptake [10],Drug uptake [11],Drug uptake [12],Drug uptake [13] [%],Drug uptake [14],Drug uptake [15] [%],SMILES,Activity [3],Activity [6],Activity [8]
< 1,< 1,–,–,–,–,–,–,–,–,–,–,CSCC[C@H](NC(=O)c1ccc([18F])cc1)C(=O)N[C@@H](CCC(N)=O)C(=O)N[C@@H](CO)C(=O)N[C@H](C(=O)N1CCC[C@H]1C(=O)N[C@@H](CC(C)C)C(=O)O)[C@@H](C)OP(=O)(O)O,–,–,–
–,–,Active,326,Active,Active,Active,Active,Active,15,Active,15,"CC[C@H](C)[C@H](NC(=O)[C@H](C)NC(=O)[C@@H](NC(=O)[C@H](CCC(N)=O)NC(=O)[C@@H]1CCCN1C(=O)[C@H](Cc1ccccc1)NC(=O)[C@@H](NC(=O)[C@H](Cc1cnc[nH]1)NC(=O)[C@H](Cc1ccccc1)NC(=O)[C@H](CCCCNC(=O)[C@H](C)NC(=O)[C@H](Cc1ccccc1)NC(=O)[C@H](CCCCN)NC(=O)[C@H](CCCNC(=N)N)NC(=O)[C@H](CCCCN)NC(=O)[C@H](CCCCN)NC(=O)[C@H](CCCCN)NC(=O)[C@@H]1CCCN1C(=O)[C@H](C)NC(=O)[C@H](CCCCN)NC(=O)[C@H](CCCNC(=N)N)NC(=O)[C@H](CCCCN)NC(=O)[C@@H](N)CCCCN)NC(=O)[C@H](CC(C)C)NC(=O)[C@@H]1CCCN1C(=O)[C@@H](NC(=O)[C@H](CO)NC(=O)[C@H](CCC(N)=O)NC(=O)[C@H](CCSC)NC(=O)c1ccc2c(c1)C1(OC2=O)c2ccc(O)cc2Oc2cc(O)ccc21)[C@@H](C)OP(=O)(O)O)[C@@H](C)O)[C@@H](C)O)C(=O)NCC(=O)N[C@H](C(=O)NCC(=O)N[C@@H](C)C(=O)N1CCC[C@H]1C(N)=O)C(C)C (HELM PEPTIDE1{[O=C1OC2(c3ccc(O)cc3Oc3cc(O)ccc32)c2cc(C(=O)[*:2])ccc21].M.Q.S.[C[C@@H](OP(=O)(O)O)[C@H](N[*:1])C(=O)[*:2]].P.L.K.F.H.T.F.P.Q.T.A.I.G.V.G.A.P.[am]}|PEPTIDE2{K.K.R.K.A.P.K.K.K.R.K.F.A}$PEPTIDE1,PEPTIDE2,8:R3-13:R2$$$V2.0)",Non-toxic,Non-toxic,Non-toxic
–,–,Active,256,Active,Active,–,Active,Active,15,Active,15,CC[C@H](C)[C@H](NC(=O)[C@H](CCCCN)NC(=O)[C@H](CC(N)=O)NC(=O)[C@H](CCCN=C(N)N)NC(=O)[C@H](Cc1ccccc1)NC(=O)[C@H](CCCCN)NC(=O)[C@H](CCCN=C(N)N)NC(=O)[C@H](CC(C)C)NC(=O)[C@H](CCCN=C(N)N)NC(=O)[C@H](CCCCN)NC(=O)[C@H](CCCN=C(N)N)NC(=O)[C@H](CC(C)C)NC(=O)CNC(=O)[C@H](CC(C)C)NC(=O)[C@@H]1CCCN1C(=O)[C@@H](NC(=O)[C@H](CO)NC(=O)[C@H](CCC(N)=O)NC(=O)[C@H](CCSC)NC(=O)c1ccc2c(c1)C1(OC2=O)c2ccc(O)cc2Oc2cc(O)ccc21)[C@@H](C)OP(=O)(O)O)C(=O)N[C@@H](CCCCN)C(=O)N[C@@H](CCC(=O)O)C(=O)N[C@@H](CCCCN)C(N)=O (HELM PEPTIDE1{[O=C1OC2(c3ccc(O)cc3Oc3cc(O)ccc32)c2cc(C(=O)[*:2])ccc21].M.Q.S.[C[C@@H](OP(=O)(O)O)[C@H](N[*:1])C(=O)[*:2]].P.L.G.L.R.K.R.L.R.K.F.R.N.K.I.K.E.K.[am]}$$$$V2.0),Non-toxic,Non-toxic,Non-toxic
–,–,Not Active,93,Active,Not Active,–,Not Active,Not Active,–,Not Active,–,CSCC[C@H](NC(=O)c1ccc2c(c1)C1(OC2=O)c2ccc(O)cc2Oc2cc(O)ccc21)C(=O)N[C@@H](CCC(N)=O)C(=O)N[C@@H](CO)C(=O)N[C@H](C(=O)N1CCC[C@H]1C(=O)N[C@@H](CC(C)C)C(=O)O)[C@@H](C)OP(=O)(O)O,–,–,–
